{"source": "patent US9447029B2", "about": "“Fluorinated arylalkylaminocarboxamide derivatives” (NEWRON PHARMACEUTICALS S.P.A., priority 2011, dated 2016)", "note": "pIC50: −log10 of the molar value. Counter-ions that a name gives are not always drawn."}
{"test_system": "TTXs sodium channels (ND7/23 cells)", "test": "TTXs-sodium channel influx assay (fluorescence, membrane potential kit)", "assay_type": "cell-based, rat", "settings": "veratridine 100 μM", "procedure": "ND7/23 rat dorsal root ganglion-derived cell line endogenously expresses a mixed population of TTXs sodium channels (such as Nav1.3, Nav1.2, Nav1.1, Nav1.6). These cells lack of TTXr sodium channels as shown by the absence of their respective transcripts. ND7/23 cells are grown in Dulbecco's Modified Eagle Medium (DMEM, Invitrogen, CA—USA) supplemented with 10% Foetal Bovine Serum (FBS, Invitrogen, CA—USA) and 1 mM sodium piruvate. The cells are seeded at 50,000 cells/well on 96 poly-L-lysine-coated plates and further incubated for 18-24 h before use.\nThe Membrane Potential Kit Assay (Molecular Devices, CA—USA), based on a negatively charged fluorescent dye able to monitor changes in membrane potential caused by the sodium influx due to the channel opening, is used for the assay.\nCells are incubated with the dye loading for 30 minutes at 25° C. Then, 100 nM of the toxin Anemonia sulcata (used as enhancer of the channel opener response) alone or in the presence of TTX (as reference standard) or test compound are added for further 15 minutes.\nThe fluorescence (excitation: 530 nm, emission: 565 nm wavelength) is measured before and after (40-45 s) the automated injection of the sodium channel opener veratridine (100 μM) using a Victor plate reader (Perkin Elmer, MA—USA).\nThe inhibition curves are calculated from 5 concentrations, each in triplicate, and the IC50 determined using a linear regression analysis.\nThe results, obtained with some compounds which are representative of the entire class of compounds of the invention are reported in Table 1."}
{"smiles": "CCCCCOc1cccc(C(F)(F)CNCC(=O)N(C)C)c1", "note": "[Example 1-2, 2-[2,2-Difluoro-2-(3-pentyloxyphenyl)-ethylamino]-N,N-dimethyl-acetamide, hydrochloride]", "pIC50": 5.89}
{"smiles": "O=C(CNCC(F)(F)c1cccc(OCCCC(F)(F)F)c1)N1CCOCC1", "note": "[Example 1-21, 2-{2,2-Difluoro-2-[3-(4,4,4-trifluorobutoxy)-phenyl]-ethylamino}-1-(morpholin-4-yl)-ethanone, hydrochloride]", "pIC50": 5.14}
{"smiles": "CCCCOc1cccc(C(F)(F)CNCC(=O)N(C)C)c1", "note": "[Example 1-1, 2-[2,2-Difluoro-2-(3-butoxyphenyl)-ethylamino]-N,N-dimethyl-acetamide, hydrochloride]", "pIC50": 6.00}
{"smiles": "CCCCOc1cccc(C(F)(F)CN(CCOC)CC(=O)N(C)C)c1", "note": "[Example 3-3, 2-{[2,2-Difluoro-2-(3-butoxyphenyl)-ethyl]-(2-methoxyethyl)-amino}-N,N-dimethyl-acetamide, hydrochloride]", "pIC50": 5.85}
{"smiles": "CCCCOc1cccc(C(F)(F)CNC(COC)C(=O)N(C)C)c1", "note": "(stereo not drawn) [Example 2-2, 2-[2,2-Difluoro-2-(3-butoxyphenyl)-ethylamino]-3-methoxy-N,N-dimethyl-propanamide]", "pIC50": 5.21}
{"smiles": "CCCCOc1cccc(C(F)(F)CNCC(=O)N2CCN(C)CC2)c1", "note": "[Example 1-26, 2-[2,2-Difluoro-2-(3-butoxyphenyl)-ethylamino]-1-(4-methylpiperazin-1-yl)-ethanone, hydrochloride]", "pIC50": 4.63}
{"smiles": "CN(C)C(=O)CNCC(F)(F)c1cccc(OCc2ccccc2)c1", "note": "[Example 1-14, 2-[2,2-Difluoro-2-(3-benzyloxyphenyl)-ethylamino]-N,N-dimethyl-acetamide, hydrochloride]", "pIC50": 5.92}
{"smiles": "CCCCOc1cccc(C(F)(F)CNCC(=O)N2CCCC2)c1", "note": "[Example 1-15, 2-[2,2-Difluoro-2-(3-butoxyphenyl)-ethylamino]-1-(pyrrolidin-1-yl)-ethanone, hydrochloride]", "pIC50": 5.96}
{"smiles": "CCCCOc1cccc(C(F)CNCC(=O)N(C)C)c1", "note": "(stereo not drawn) [Example 4-1, 2-[2-Fluoro-2-(3-butoxyphenyl)-ethylamino]-N,N-dimethyl-acetamide, hydrochloride]", "pIC50": 5.82}
{"smiles": "CCCCOc1cccc(C(F)(F)CNCC(=O)N2CCC2)c1", "note": "[Example 1-42, 2-[2,2-Difluoro-2-(3-butoxyphenyl)-ethylamino)-1-(azetidin-1-yl)-ethanone, hydrochloride]", "pIC50": 5.30}
{"smiles": "CCCCOc1cccc(C(F)(F)CNC(C)C(=O)N(C)C)c1", "note": "(stereo not drawn) [Example 2-1, 2-[2,2-Difluoro-2-(3-butoxyphenyl)-ethylamino]-N,N-dimethyl-propanamide, hydrochloride]", "pIC50": 4.70}
{"smiles": "CCCCOc1cccc(C(F)(F)CN(CCCOC)CC(=O)N(C)C)c1", "note": "[Example 3-2, 2-{[2,2-Difluoro-2-(3-butoxyphenyl)-ethyl]-(3-methoxypropyl)-amino}-N,N-dimethyl-acetamide, hydrochloride]", "pIC50": 5.62}
{"smiles": "CCCCCCOc1cccc(C(F)(F)CNCC(=O)N(C)C)c1", "note": "[Example 1-6, 2-[2,2-Difluoro-2-(3-hexyloxyphenyl)-ethylamino]-N,N-dimethyl-acetamide, hydrochloride]", "pIC50": 6.85}
{"smiles": "CCCCOc1cccc(C(F)(F)CNCC(=O)N2CCCCC2)c1", "note": "[Example 1-29, 2-[2,2-Difluoro-2-(3-butoxyphenyl)-ethylamino]-1-(piperidin-1-yl)-ethanone, hydrochloride]", "pIC50": 5.74}
{"smiles": "O=C(CNCC(F)(F)c1cccc(OCCCC(F)(F)F)c1)N1CCCC1", "note": "[Example 1-18, 2-{2,2-Difluoro-2-[3-(4,4,4-trifluorobutoxy)-phenyl]-ethylamino}-1-(pyrrolidin-1-yl)-ethanone]", "pIC50": 6.02}
{"smiles": "CCCCOc1cccc(C(F)(F)CN(C)CC(=O)N(C)C)c1", "note": "[Example 3-1, 2-{[2,2-Difluoro-2-(3-butoxyphenyl)-ethyl]-methylamino}-N,N-dimethyl-acetamide, hydrochloride]", "pIC50": 5.64}
{"smiles": "CCCCOc1cccc(C(F)(F)CNCC(=O)N(CC)CC)c1", "note": "[Example 1-32, 2-[2,2-Difluoro-2-(3-butoxyphenyl)-ethylamino]-N,N-diethyl-acetamide, hydrochloride]", "pIC50": 5.55}
{"smiles": "CN1CCN(C(=O)CNCC(F)(F)c2cccc(OCCCC(F)(F)F)c2)CC1", "note": "[Example 1-28, 2-{2,2-Difluoro-2-[3-(4,4,4-trifluorobutoxy)-phenyl)-ethylamino}-1-(4-methylpiperazin-1-yl)-ethanone, hydrochloride]", "pIC50": 5.49}
{"smiles": "CN(C)C(=O)CNCC(F)(F)c1cccc(OCCCC(F)(F)F)c1", "note": "[Example 1-7, 2-{2,2-Difluoro-2-[3-(4,4,4-trifluorobutoxy)-phenyl]-ethylamino}-N,N-dimethyl-acetamide, hydrochloride]", "pIC50": 5.44}
{"target": "CYP2D6 (Homo sapiens (Human), UniProt P10635)", "sequence (P10635 whole entry)": "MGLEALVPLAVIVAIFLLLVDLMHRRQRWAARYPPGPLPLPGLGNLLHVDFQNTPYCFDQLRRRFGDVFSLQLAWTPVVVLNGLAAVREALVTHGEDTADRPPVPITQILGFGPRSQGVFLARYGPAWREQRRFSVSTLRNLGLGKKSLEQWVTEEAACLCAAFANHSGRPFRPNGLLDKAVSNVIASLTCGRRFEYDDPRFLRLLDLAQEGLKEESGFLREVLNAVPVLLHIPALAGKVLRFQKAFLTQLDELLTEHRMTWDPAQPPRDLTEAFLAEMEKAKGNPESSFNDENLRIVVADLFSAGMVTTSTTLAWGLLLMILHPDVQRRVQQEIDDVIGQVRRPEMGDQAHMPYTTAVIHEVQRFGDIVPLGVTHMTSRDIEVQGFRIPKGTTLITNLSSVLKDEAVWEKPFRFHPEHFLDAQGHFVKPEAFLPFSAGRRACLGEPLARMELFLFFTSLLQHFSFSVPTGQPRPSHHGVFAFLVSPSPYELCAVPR", "test": "Inhibition of Cytochrome P4502D6 (CYP2D6) using Supersomes", "assay_type": "in vitro ADME", "settings": "AMMC substrate, read-out: IC50 (Fluorinated derivative)", "procedure": "(§1) The inhibition of Cytochrome P4502D6 (CYP2D6) is assessed by performing in vitro inhibition studies using Supersomes, microsomes derived from baculovirus infected insect cells; the baculoviruses are engineered to express one or more drug metabolizing enzyme cDNAs. Supersomes catalyze the same enzymatic reactions as human liver microsome enzymes, but they contain much higher enzyme activity than other microsome sources (Crespi C. L. and Penman B. W., Advances Pharmacology, 43, 171-188 (1997); Crespi C. L. and Miller V. P., Analytical Biochemistry, 248, 188-190 (1997)).\n(§2) Kits with Supersomes are Supplied by GENTEST (MA, USA).\n(§3) Test compound is dissolved in DMSO 500× the highest final concentration desired in the IC50 assay. 30 ml of deionized water is pre-warmed to 37° C. and all kit components are placed on ice. For each well of column 1, 149.4 μL of NADPH-Cofactor Mix, (187.5 μl of Cofactors, 150 μl of G6PDH, 100 μl of Control Protein and 14.56 ml of 37° C. water) are added.\n(§4) In each well from Column 2 to 12, 100 μl of Cofactor/DMSO mix (40 μL DMSO in 9.96 ml of NADPH-Cofactor Mix) are added. To each well of column 1, 0.6 μl of test compound or positive control are added. 50 μl from each well of column 1 are serially diluted to column 8. The extra 50 μl from column 8 are discarded. The plate is covered and pre-incubated at 37° C. for 10 minutes.\n(§5) Preparation of enzyme/substrate mix: 7.92 ml of pre-warmed deionized water, 75 μl of enzyme, 3 μl of 10 mM AMMC and 2 ml of pre-warmed buffer are mixed.\n(§6) After the pre-incubation time (10′), 100 μl of enzyme/substrate mix to each well from column 1 to 10 are added. The plate is incubated at 37° C. for 30 minutes. After this time, 75 μl of Stop Reagent to each well are added. For blank controls, 100 μl of enzyme/substrate mix are added to columns 11 and 12.\n(§7) Plates are read at the Victor plate reader (Perkin Elmer, MA—USA) at 390 nm excitation and 460 nm emission wavelengths."}
{"smiles": "CCCCCOc1cccc(C(F)(F)CNCC(=O)N(C)C)c1", "note": "[Example 1-2, 2-[2,2-Difluoro-2-(3-pentyloxyphenyl)-ethylamino]-N,N-dimethyl-acetamide, hydrochloride]", "pIC50": "< 4.40"}
{"smiles": "O=C(CNCC(F)(F)c1cccc(OCCCC(F)(F)F)c1)N1CCOCC1", "note": "[Example 1-21, 2-{2,2-Difluoro-2-[3-(4,4,4-trifluorobutoxy)-phenyl]-ethylamino}-1-(morpholin-4-yl)-ethanone, hydrochloride]", "pIC50": "< 4.40"}
{"smiles": "CCCCOc1cccc(C(F)(F)CNC(C)C(=O)N(C)C)c1", "note": "(stereo not drawn) [Example 2-1, 2-[2,2-Difluoro-2-(3-butoxyphenyl)-ethylamino]-N,N-dimethyl-propanamide, hydrochloride]", "pIC50": "< 4.40"}
{"smiles": "CCCCOc1cccc(C(F)(F)CN(CCCOC)CC(=O)N(C)C)c1", "note": "[Example 3-2, 2-{[2,2-Difluoro-2-(3-butoxyphenyl)-ethyl]-(3-methoxypropyl)-amino}-N,N-dimethyl-acetamide, hydrochloride]", "pIC50": "< 4.40"}
{"target": "CYP2D6 (Homo sapiens (Human), UniProt P10635)", "test": "Inhibition of Cytochrome P4502D6 (CYP2D6) using Supersomes", "assay_type": "in vitro ADME", "settings": "AMMC substrate, reference standards of the closest prior art, read-out: IC50 (Corresponding de-fluorinated derivative)", "procedure": "as §1, §2, §3, §4, §5, §6, §7"}
{"smiles": "CCCCOc1cccc(CCNCC(=O)N2CCCCC2)c1", "note": "[2-[2-(3-Butoxyphenyl)-ethylamino]-1-(piperidin-1-yl)-ethanone, hydrochloride]", "pIC50": 5.96}
{"smiles": "CCCCOc1cccc(CCNCC(=O)N2CCCC2)c1", "note": "[2-[2-(3-Butoxyphenyl)-ethylamino]-1-(pyrrolidin-1-yl)-ethanone, hydrochloride]", "pIC50": 5.52}
{"smiles": "O=C(CNCCc1cccc(OCCCC(F)(F)F)c1)N1CCOCC1", "note": "[2-{2-[3-(4,4,4-trifluorobutoxy)phenyl]-ethylamino}-1-(morpholin-4-yl)-ethanone, hydrochloride]", "pIC50": 5.74}
{"smiles": "CCCCOc1cccc(CCNCC(=O)N(CCC)CCC)c1", "note": "[2-[2-(3-Butoxyphenyl)-ethylamino]-N,N-dipropyl-acetamide, hydrochloride]", "pIC50": 6.15}
{"smiles": "CCCCOc1cccc(CCNCC(=O)N(C)C)c1", "note": "[2-[2-(3-Butoxyphenyl)-ethylamino]-N,N-dimethyl-acetamide, hydrochloride]", "pIC50": 5.24}
{"smiles": "CCCCOc1cccc(CCN(CCOC)CC(=O)N(C)C)c1", "note": "[2-{[2-(3-Butoxyphenyl)-ethyl]-(2-methoxyethyl)-amino}-N,N-dimethyl-acetamide, hydrochloride]", "pIC50": 5.47}
{"smiles": "CCCCCOc1cccc(CCNCC(=O)N(C)C)c1", "note": "[2-[2-(3-Pentyloxyphenyl)-ethylamino]-N,N-dimethyl-acetamide, hydrochloride]", "pIC50": 5.46}
{"smiles": "CN(C)C(=O)CNCCc1cccc(OCc2ccccc2)c1", "note": "[2-[2-(3-Benzyloxyphenyl)-ethylamino]-N,N-dimethyl-acetamide, hydrochloride]", "pIC50": 4.97}
{"smiles": "O=C(CNCCc1cccc(OCCCC(F)(F)F)c1)N1CCCC1", "note": "[2-{2-[3-(4,4,4-trifluorobutoxy)-phenyl]-ethylamino}-1-(pyrrolidin-1-yl)-ethanone, hydrochloride]", "pIC50": 5.30}
{"smiles": "CCCCCCOc1cccc(CCNCC(=O)N(C)C)c1", "note": "[2-[2-(3-Hexyloxyphenyl)-ethylamino]-N,N-dimethyl-acetamide, hydrochloride]", "pIC50": 6.05}
{"smiles": "CCCCOc1cccc(CCNC(C)C(=O)N(C)C)c1", "note": "(stereo not drawn) [2-[2-(3-Butoxyphenyl)-ethylamino]-N,N-dimethyl-propanamide, hydrochloride]", "pIC50": 5.24}
{"smiles": "CCCCOc1cccc(CCNCC(=O)N(CC)CC)c1", "note": "[2-[2-(3-Butoxyphenyl)-ethylamino]-N,N-diethyl-acetamide, hydrochloride]", "pIC50": 5.60}
{"smiles": "CCCCOc1cccc(CCN(CCCOC)CC(=O)N(C)C)c1", "note": "[2-{[2-(3-Butoxyphenyl)-ethyl]-(3-methoxypropyl)-amino}-N,N-dimethyl-acetamide, hydrochloride]", "pIC50": 5.14}
